Results: US20070167408A1, “NOVEL ALKYL PHOSPHOLIPID DERIVATIVES WITH REDUCED CYTOTOXICITY AND USES THEREOF” (ZENTARIS GmbH, priority 2005, published 2007)
≈ marks a conversion by molar mass, not a printed value.

Columns and labels:
Format in all cases: cell-based
[1] = test system: Aspergillus fumigatus 040-200167; experiment: Anti-fungal broth microdilution (MIC), fungus C; conditions: filamentous protocol, more than 50% growth inhibition, 48 to 72 h
Procedure, shortened: (§1)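 Broth microdilution followed NCCLS M27-A for the Candida yeasts and M38-A for the Aspergillus filamentous strains, testing 64 down to 0.125 μg/ml in twofold steps against a 10^6 CFU/ml inoculum. For Aspergillus, MIC was read after 48 to 72 h at 35 °C as the concentration giving >50% visible growth inhibition.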

[2] = test system: Candida albicans ATCC 10231; experiment: Anti-fungal broth microdilution (MIC), fungus D; conditions: yeast protocol, more than 80% inhibition, 48 h
Procedure, shortened: as §1

[3] = test system: Candida albicans ATCC 90028; experiment: Anti-fungal broth microdilution (MIC), fungus E; conditions: yeast protocol, more than 80% inhibition, 48 h
Procedure, shortened: as §1

[4] = test system: Cryptococcus neoformans ATCC 90112; experiment: Anti-fungal broth microdilution (MIC), fungus H; conditions: yeast protocol, more than 80% inhibition, 48 h
Procedure, shortened: (§2)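 Broth microdilution per NCCLS M27-A (yeasts) and M38-A (filamentous fungi), compounds tested from 64 down to 0.125 μg/ml against 10^6 CFU/ml inocula. For filamentous fungi, MIC read after 48 to 72 h at 35° C as the concentration giving more than 50% visible growth inhibition.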

[5] = test system: Cryptococcus neoformans H99; experiment: Anti-fungal broth microdilution (MIC), fungus I; conditions: yeast protocol, more than 80% inhibition, 48 h
Procedure, shortened: as §2

[6] = test system: Plasmodium falciparum (strain K1); experiment: In vitro drug activity assay, protozoon C; conditions: strain K1, 3[H]-hypoxanthine method
Procedure: In vitro activity of selected compounds of the invention against different protozoa was assessed as follows.
Plasmodium falciparum strain K1 and strain 3D7 parasites were cultured according to Trager W and Jensen J B (Science 1976, 193: 673-675). In vitro drug susceptibility assays with the test compounds were carried out according to Korsinczky M et al. (Antimicrobial agents and chemotherapy 2000, 44(8): 2100-2108) and Fivelman Q L et al. (Antimicrobial agents and chemotherapy 2004, 48(11): 4097-4102) using a ^3[H]-hypoxanthine radioisotope method. ED50 values were calculated with Msxlfit (IDBS).
The following protozoa were assessed: • A) Trypanosoma cruzi (Tulahuan-LACZ amstigotes in PEM, Lorente S O et al., Antimicrobial agents and chemotherapy 2004, 48(8): 2937-2950; Buckner et al., Infection and Immunity 1999, 67(1): 403-409; Buckner et al., Antimicrobial Agents and Chemotherapy 1996, 40(11): 2592-2597) • B) Trypanosoma brucei rhodesiense (strain STIB900, Lorente S O et al., Antimicrobial agents and chemotherapy 2004, 48(8): 2937-2950; Habtemariam S, BMC Pharmacology 2003, 3:6) • C) Plasmodium falciparum (strain K1, Korsinczky M et al., Antimicrobial agents and chemotherapy 2000, 44(8): 2100-2108; Thaitong S and Beale G H, Trans. R. Soc. Trop. Med. Hyg. 1981, 75: 271-273; Trager W and Jensen J B, Science 1976, 193: 673-675) • D) Plasmodium faiciparum (strain 3D7, Mu et al., PLoS Biology 2005, 3(10): e335)

[7] = test system: Enterococcus faecium DSM 20477 (ATCC 19434); experiment: Anti-bacterial bouillon microdilution assay (MIC), bacterium C; conditions: Enterococcus faecium DSM 20477, 24 h
Procedure: Selected compounds of the invention were tested in a bouillon microdilution assay method according to the DIN 58940 (www.din.de) guidelines for determination of susceptibility of bacterial strains with regard to cell growth inhibition. The assay method quantifies bacterial cell growth which corresponds to the turbidity of the liquid culture medium by photometric measurement carried out at 595 nm.
The method of MIC determination was performed according to DIN 58940-5. The volumina were adapted according to the microdilution method as described in DIN 58940-7 guideline.
Dependent on water solubility, compounds of the invention were dissolved either in water or ethanol in a concentration of 10 mg/ml. Subsequently, the stock was further diluted in water to a concentration of 512 μg/ml. The following serial dilutions (factor 2) were performed in water resulting in the following […] testing concentrations: 256 μg/ml, 128 μg/ml, 64 μg/ml, 32 μg/ml, 16 μg/ml, 8 μg/ml, 4 μg/ml, 2 μg/ml, 1 μg/ml, 0.5 μg/ml, 0.25 μg/ml and 0.125 μg/ml. Diluted compounds of the invention were transferred in 100 μl volume to the microtiter plate wells. […]
Before and after incubation, bacterial growth was determined by photometric analysis against a positive control containing growing bacteria without compound and a sterile/negative control containing only the medium.

[8] = test system: Bacteroides fragilis DSM 2151 (ATCC 25285); experiment: Anti-bacterial bouillon microdilution assay (MIC), bacterium E; conditions: anaerob, 24 h
Procedure, shortened: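 Broth microdilution MIC per DIN 58940-5/-7. Twofold compound dilutions in water spanned 256 to 0.125 μg/ml in the test concentration series, with inocula of about 1×10^6 organisms/ml in strain-appropriate media. Growth was read as turbidity at 595 nm before and after incubation, against growth and sterile controls.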

SMILES | MIC, fungus C [1] [µg/mL] | MIC, fungus D [2] [µg/mL] | MIC, fungus E [3] [µg/mL] | MIC, fungus H [4] [µg/mL] | MIC, fungus I [5] [µg/mL] | ED50 (μg/mL), protozoon C [6] [µg/mL] | MIC [7] [µg/mL] | MIC [8] [µg/mL]
CCCCCCCCCCCCCCCCOP(=O)([O-])OCC[N+]1(C)CCCCC1 [Compound 2, Phosphoric acid hexadecyl ester 2-(1-methyl-piperidin-1-yl)-ethyl ester] | 6 (≈ 13.4 µM) | 1 (≈ 2.23 µM) | 1 (≈ 2.23 µM) | 1.5 (≈ 3.35 µM) | 1 (≈ 2.23 µM) | 19.36 (≈ 43.2 µM) | – | –
CCCCCCCCCCCCCCCCOP(=O)([O-])OCC[N+](C)(C)C [miltefosine, hexadecylphosphocholine, reference compound] | – | – | – | – | – | – | 32 (≈ 78.5 µM) | > 256
